# Assay results published in patent publication US10239873B2, “7-azaindole or 4,7-diazaindole derivatives as IKKϵ epsilon and TBK1 inhibitor and pharmaceutical composition comprising same” (GREEN CROSS CORPORATION, priority 2015, dated 2019).
# Legend:
# TBK1 = biological target: T1, TBK1 (Homo sapiens, UniProt Q9UHD2); test: ADP-Glo Kinase Assay, inhibition activity on TBK1; assay type: biochemical
# T1 construct: purchased Promega (Invitrogen is also named in the same bracket) V4158; PR8031B; V3991 (not assigned to the two kinases)
# T1 sequence (Q9UHD2 1-729): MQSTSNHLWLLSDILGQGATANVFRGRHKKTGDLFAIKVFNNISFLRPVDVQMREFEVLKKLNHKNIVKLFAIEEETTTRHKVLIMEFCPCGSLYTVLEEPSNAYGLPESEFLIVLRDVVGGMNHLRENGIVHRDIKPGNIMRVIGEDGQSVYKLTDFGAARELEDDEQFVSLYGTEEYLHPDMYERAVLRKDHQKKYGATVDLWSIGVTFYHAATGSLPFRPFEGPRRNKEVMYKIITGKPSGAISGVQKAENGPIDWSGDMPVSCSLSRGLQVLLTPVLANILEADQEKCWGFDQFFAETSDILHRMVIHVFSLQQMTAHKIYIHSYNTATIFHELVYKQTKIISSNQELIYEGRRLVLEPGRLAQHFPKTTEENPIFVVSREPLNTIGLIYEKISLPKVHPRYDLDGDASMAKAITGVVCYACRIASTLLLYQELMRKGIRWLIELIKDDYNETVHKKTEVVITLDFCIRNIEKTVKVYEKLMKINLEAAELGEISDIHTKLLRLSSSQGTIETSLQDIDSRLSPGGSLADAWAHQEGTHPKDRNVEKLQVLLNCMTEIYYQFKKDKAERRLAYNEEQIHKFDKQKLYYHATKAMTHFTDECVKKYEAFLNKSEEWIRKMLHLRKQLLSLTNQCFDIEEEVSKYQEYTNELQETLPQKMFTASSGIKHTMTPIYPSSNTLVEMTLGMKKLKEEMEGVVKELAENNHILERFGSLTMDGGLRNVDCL
# In short: (§1)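 Kinase activity measured with the ADP-Glo luminescent ADP-detection kit per manufacturer's protocol, using IKKε or TBK1 kinase enzyme systems. Reaction buffer: 40 mM Tris (pH 7.5), 20 mM MgCl2, 0.1 mg/mL BSA; luminescence read on a luminometer.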
# IKKε = biological target: T2, IKKε (Homo sapiens, UniProt Q14164); test: ADP-Glo Kinase Assay, inhibition activity on IKKε; assay type: biochemical
# T2 construct: purchased Promega and/or Invitrogen V4158; PR8031B; V3991 (not assigned to the two kinases)
# T2 sequence (Q14164 1-716): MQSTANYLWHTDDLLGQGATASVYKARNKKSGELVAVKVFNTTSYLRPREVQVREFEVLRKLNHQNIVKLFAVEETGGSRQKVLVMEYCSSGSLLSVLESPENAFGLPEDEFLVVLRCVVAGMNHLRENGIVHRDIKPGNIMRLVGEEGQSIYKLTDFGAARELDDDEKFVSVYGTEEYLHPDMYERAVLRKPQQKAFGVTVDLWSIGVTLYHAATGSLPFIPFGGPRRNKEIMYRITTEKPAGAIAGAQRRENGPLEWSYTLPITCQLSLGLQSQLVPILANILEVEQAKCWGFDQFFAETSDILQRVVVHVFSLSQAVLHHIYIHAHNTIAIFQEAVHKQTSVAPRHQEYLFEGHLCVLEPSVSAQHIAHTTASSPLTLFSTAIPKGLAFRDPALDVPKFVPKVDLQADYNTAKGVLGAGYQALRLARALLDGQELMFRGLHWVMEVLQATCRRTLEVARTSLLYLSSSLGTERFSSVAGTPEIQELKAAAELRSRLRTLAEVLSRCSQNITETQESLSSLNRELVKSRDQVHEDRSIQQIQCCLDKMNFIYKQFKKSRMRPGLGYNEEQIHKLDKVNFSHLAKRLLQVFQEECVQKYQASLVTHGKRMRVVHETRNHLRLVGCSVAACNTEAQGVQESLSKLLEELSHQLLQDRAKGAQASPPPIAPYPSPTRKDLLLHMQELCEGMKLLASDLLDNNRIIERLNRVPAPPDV
# In short: as §1
IC50 (TBK1) [µM],IC50 (IKKε) [µM],SMILES
0.018,0.048,"CC1C=C(c2c[nH]c3ncc(-c4ccc(CN5CCN(C(=O)OC(C)(C)C)CC5)s4)cc23)CCN1C(=O)NC1CC1 (stereo not shown) [Example 93, tert-Butyl 4-((5-(3-(1-(cyclopropylcarbamoyl)-6-methyl-1,2,3,6-tetrahydropyridin-4-yl)-1H-pyrrolo[2,3-b]pyridin-5-yl)thiophen-2-yl)methyl)piperazine-1-carboxylate]"
0.0039,0.01,"CC1C=C(c2c[nH]c3ncc(-c4ccc(C(=O)N5CCN(C)CC5)cc4)cc23)CCN1C(=O)NC1CC1 (stereo not shown) [Example 94, N-cyclopropyl-2-methyl-4-(5-(4-(4-methylpiperazine-1-carbonyl)phenyl)-1H-pyrrolo[2,3-b]pyridin-3-yl)-5,6-dihydropyridine-1(2H)-carboxamide]"
0.0074,0.014,"CC1C=C(c2c[nH]c3ncc(-c4ccc(CN5CCN(C)CC5)cc4)cc23)CCN1C(=O)NC1CC1 (stereo not shown) [Example 95, N-cyclopropyl-2-methyl-4-(5-(4-((4-methylpiperazin-1-yl)methyl)phenyl)-1H-pyrrolo[2,3-b]pyridin-3-yl)-5,6-dihydropyridine-1(2H)-carboxamide]"
0.0031,0.0065,"CC1C=C(c2c[nH]c3ncc(-c4ccc(CN5CCN(C)CC5)s4)cc23)CCN1C(=O)NC1CC1 (stereo not shown) [Example 96, N-cyclopropyl-2-methyl-4-(5-(5-((4-methylpiperazin-1-yl)methyl)thiophen-2-yl)-1H-pyrrolo[2,3-b]pyridin-3-yl)-5,6-dihydropyridine-1(2H)-carboxamide]"
0.0017,0.0025,"CC1C=C(c2c[nH]c3ncc(-c4ccc(CN5CCOCC5)s4)cc23)CCN1C(=O)NC1CC1 (stereo not shown) [Example 97, N-cyclopropyl-2-methyl-4-(5-(5-(morpholinomethyl)thiophen-2-yl)-1H-pyrrolo[2,3-b]pyridin-3-yl)-5,6-dihydropyridine-1(2H)-carboxamide]"
0.015,0.022,"CC1C=C(c2c[nH]c3ncc(-c4ccc(C(=O)N5CCN(C)CC5)cc4)cc23)CCN1C(=O)NC1CCC1 (stereo not shown) [Example 98, N-cyclobutyl-2-methyl-4-(5-(4-(4-methylpiperazine-1-carbonyl)phenyl)-1H-pyrrolo[2,3-b]pyridin-3-yl)-5,6-dihydropyridine-1(2H)-carboxamide]"
0.028,0.064,"CC1C=C(c2c[nH]c3ncc(-c4ccc(CN5CCN(C)CC5)cc4)cc23)CCN1C(=O)NC1CCC1 (stereo not shown) [Example 99, N-cyclobutyl-2-methyl-4-(5-(4-((4-methylpiperazin-1-yl)methyl)phenyl)-1H-pyrrolo[2,3-b]pyridin-3-yl)-5,6-dihydropyridine-1(2H)-carboxamide]"
0.0056,0.035,"CC1C=C(c2c[nH]c3ncc(-c4ccc(CN5CCN(C)CC5)s4)cc23)CCN1C(=O)NC1CCC1 (stereo not shown) [Example 100, N-cyclobutyl-2-methyl-4-(5-(5-((4-methylpiperazin-1-yl)methyl)thiophen-2-yl)-1H-pyrrolo[2,3-b]pyridin-3-yl)-5,6-dihydropyridine-1(2H)-carboxamide]"
0.01,0.029,"CC1C=C(c2c[nH]c3ncc(-c4ccc(CN5CCOCC5)s4)cc23)CCN1C(=O)NC1CCC1 (stereo not shown) [Example 101, N-cyclobutyl-2-methyl-4-(5-(5-(morpholinomethyl)thiophen-2-yl)-1H-pyrrolo[2,3-b]pyridin-3-yl)-5,6-dihydropyridine-1(2H)-carboxamide]"
0.0044,0.013,"CC1C=C(c2c[nH]c3ncc(-c4ccc(CN5CCN(C)CC5)s4)cc23)CCN1C(=O)NC1CCCC1 (stereo not shown) [Example 102, N-cyclopentyl-2-methyl-4-(5-(5-((4-methylpiperazin-1-yl)methyl)thiophen-2-yl)-1H-pyrrolo[2,3-b]pyridin-3-yl)-5,6-dihydropyridine-1(2H)-carboxamide]"
0.058,0.15,"CC1CC(c2c[nH]c3ncc(-c4ccc(CN5CCN(C)CC5)s4)cc23)=CCN1C(=O)NC1CCCC1 (stereo not shown) [Example 103, N-cyclopentyl-6-methyl-4-(5-(5-((4-methylpiperazin-1-yl)methyl)thiophen-2-yl)-1H-pyrrolo[2,3-b]pyridin-3-yl)-5,6-dihydropyridine-1(2H)-carboxamide]"
0.11,0.19,"CC1CC(c2c[nH]c3ncc(-c4ccc(CN5CCOCC5)s4)cc23)=CCN1C(=O)NC1CCCC1 (stereo not shown) [Example 104, N-cyclopentyl-6-methyl-4-(5-(5-(morpholinomethyl)thiophen-2-yl)-1H-pyrrolo[2,3-b]pyridin-3-yl)-5,6-dihydropyridine-1(2H)-carboxamide]"
0.025,0.022,"CC1C=C(c2c[nH]c3ncc(-c4ccc(S(C)(=O)=O)cc4)cc23)CCN1C(=O)NC1CCCC1 (stereo not shown) [Example 105, N-cyclopentyl-2-methyl-4-(5-(4-(methylsulfonyl)phenyl)-1H-pyrrolo[2,3-b]pyridin-3-yl)-5,6-dihydropyridine-1(2H)-carboxamide]"
0.0031,0.0047,"CC1C=C(c2c[nH]c3ncc(-c4ccc(CN5CCOCC5)s4)cc23)CCN1C(=O)NC1CCCC1 (stereo not shown) [Example 106, N-cyclopentyl-2-methyl-4-(5-(5-(morpholinomethyl)thiophen-2-yl)-1H-pyrrolo[2,3-b]pyridin-3-yl)-5,6-dihydropyridine-1(2H)-carboxamide]"
0.023,0.029,"COc1ccc(-c2cnc3[nH]cc(C4=CC(C)N(C(=O)NC5CCCC5)CC4)c3c2)cc1OC (stereo not shown) [Example 108, N-cyclopentyl-4-(5-(3,4-dimethoxyphenyl)-1H-pyrrolo[2,3-b]pyridin-3-yl)-2-methyl-5,6-dihydropyridine-1(2H)-carboxamide]"
0.22,0.39,"CCC1C=C(c2c[nH]c3ncc(-c4ccc(CN5CCOCC5)s4)cc23)CCN1C(=O)NC(C)C (stereo not shown) [Example 109, 2-Ethyl-N-isopropyl-4-(5-(5-(morpholinomethyl)thiophen-2-yl)-1H-pyrrolo[2,3-b]pyridin-3-yl)-5,6-dihydropyridine-1(2H)-carboxamide]"
0.031,0.043,"CCC1CC(c2c[nH]c3ncc(-c4ccc(CN5CCOCC5)s4)cc23)=CCN1C(=O)NC(C)C (stereo not shown) [Example 110, 6-Ethyl-N-isopropyl-4-(5-(5-(morpholinomethyl)thiophen-2-yl)-1H-pyrrolo[2,3-b]pyridin-3-yl)-5,6-dihydropyridine-1(2H)-carboxamide]"
0.018,0.077,"CCC1C=C(c2c[nH]c3ncc(-c4ccc(CN5CCN(C)CC5)s4)cc23)CCN1C(=O)NC(C)C (stereo not shown) [Example 111, 2-Ethyl-N-isopropyl-4-(5-(5-((4-methylpiperazin-1-yl)methyl)thiophen-2-yl)-1H-pyrrolo[2,3-b]pyridin-3-yl)-5,6-dihydropyridine-1(2H)-carboxamide]"
0.056,0.062,"CCC1C=C(c2c[nH]c3ncc(-c4ccc(CN5CCOCC5)cc4)cc23)CCN1C(=O)NC(C)C (stereo not shown) [Example 112, 6-Ethyl-N-isopropyl-4-(5-(4-(morpholinomethyl)phenyl)-1H-pyrrolo[2,3-b]pyridin-3-yl)-3,6-dihydropyridine-1(2H)-carboxamide]"
0.018,0.046,"CCC1C=C(c2c[nH]c3ncc(-c4ccc(C(=O)N5CCN(C)CC5)cc4)cc23)CCN1C(=O)NC(C)C (stereo not shown) [Example 113, 6-Ethyl-N-isopropyl-4-(5-(4-(4-methylpiperazine-1-carbonyl)phenyl)-1H-pyrrolo[2,3-b]pyridin-3-yl)-3,6-dihydropyridine-1(2H)-carboxamide]"
